Results published in patent US5770382A, “Tricyclic retinoids, methods for their production and use” (Ligand Pharmaceuticals, Inc., priority 1995, dated 1998).

What was measured:
Format in all cases: cell-based
[1] = tested on: RXRs; experiment: Co-transfection assay, summary for the RXRs
Experimental: Utilizing the "cis-trans" or "co-transfection" assay described by Evans et al., Science, 240:889-95 (May 13, 1988), the disclosure of which is herein incorporated by reference, the retinoid compounds of the present invention were tested and found to have strong, specific activity as either selective RAR agonists, selective RXR agonists, or as pan-agonist activators of both RAR and RXR receptors. This assay is described in further detail in U.S. Pat. Nos. 4,981,784 and 5,071,773, the disclosures of which are incorporated herein by reference.
The co-transfection assay provides a method for identifying functional agonists which mimic, or antagonists which inhibit, the effect of native hormones, and quantifying their activity for responsive IR proteins. In this regard, the co-transfection assay mimics an in vivo system in the laboratory. Importantly, activity in the co-transfection assay correlates very well with known in vivo activity, such that the co-transfection assay functions as a qualitative and quantitative predictor of a tested compounds Ln vivo pharmacology. See, e.g., T. Berger et al. 41 J. Steroid Biochem. Molec. […]
The co-transfection assay can detect small molecule agonists or antagonists of target IRs. […] This activity can be conveniently measured, e.g., by increasing luciferase production, which reflects compound-dependent, IR-mediated increases in reporter transcription. […]

[2] = biological target: T1, RARγ (Homo sapiens, UniProt P13631); experiment: Co-transfection assay, RARγ agonist activity; conditions: CV-1 cells, 40 hours; read-out: RARγ Pot (potency, EC50)
T1 construct: expressed in transfected cells; host or cells: CV-1 (African green monkey kidney fibroblasts)
T1 sequence (P13631 1-454): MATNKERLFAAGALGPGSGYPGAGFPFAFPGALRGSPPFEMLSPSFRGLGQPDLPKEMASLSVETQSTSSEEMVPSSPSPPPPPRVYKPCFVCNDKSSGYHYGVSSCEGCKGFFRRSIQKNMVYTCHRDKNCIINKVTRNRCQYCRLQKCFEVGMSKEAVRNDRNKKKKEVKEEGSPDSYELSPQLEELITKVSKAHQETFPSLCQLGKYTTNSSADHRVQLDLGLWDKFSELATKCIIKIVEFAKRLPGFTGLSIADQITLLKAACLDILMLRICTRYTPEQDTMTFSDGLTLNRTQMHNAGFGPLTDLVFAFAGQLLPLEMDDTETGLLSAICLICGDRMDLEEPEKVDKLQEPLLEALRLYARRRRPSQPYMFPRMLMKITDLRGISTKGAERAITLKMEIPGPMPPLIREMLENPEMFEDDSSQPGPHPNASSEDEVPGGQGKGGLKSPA

[3] = biological target: T2, RXRβ (Mus musculus, UniProt P28704); experiment: Co-transfection assay, RXRβ agonist activity; conditions: CV-1 cells, 40 hours; read-out: RXRβ Pot (potency, EC50)
T2 construct: expressed in transfected cells; host or cells: CV-1 (African green monkey kidney fibroblasts)
T2 sequence (P28704 1-520): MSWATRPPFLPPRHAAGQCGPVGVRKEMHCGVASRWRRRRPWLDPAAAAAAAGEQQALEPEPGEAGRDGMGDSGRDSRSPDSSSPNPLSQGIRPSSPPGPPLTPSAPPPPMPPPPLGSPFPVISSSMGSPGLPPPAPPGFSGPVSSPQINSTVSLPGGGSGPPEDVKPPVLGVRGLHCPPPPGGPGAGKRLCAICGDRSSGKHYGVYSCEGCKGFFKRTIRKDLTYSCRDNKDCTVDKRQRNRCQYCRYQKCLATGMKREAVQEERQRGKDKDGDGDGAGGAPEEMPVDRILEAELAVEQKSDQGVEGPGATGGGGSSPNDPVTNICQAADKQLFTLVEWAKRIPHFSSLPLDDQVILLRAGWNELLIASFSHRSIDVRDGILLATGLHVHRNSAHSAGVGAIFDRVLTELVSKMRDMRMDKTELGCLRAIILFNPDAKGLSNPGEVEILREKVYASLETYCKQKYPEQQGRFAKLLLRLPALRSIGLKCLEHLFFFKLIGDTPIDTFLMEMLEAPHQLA

EC50 [2]: 83 nM
EC50 [3]: 20 nM
Structure (SMILES): CC(/C=C/C=C1/CC(C)(C)Oc2cc3c(cc21)C(C)(C)CCC3(C)C)=C\C(=O)O [Compound 104b, (2E,4E)-3-Methyl-6-(2,3,6,7,8,9-hexahydro-2,2,6,6,9,9-hexamethylbenzo[b]-chromen-4-ylidene)-hexa-2,4-dienoic acid]
RXR activity / selectivity (in words) [1]: potent and selective RXR compound
